Measurements published in PubChem BioAssay AID330 (DTP/NCI, 2004).
Where “and” joins values, the source holds several entries; their conditions need not be identical. Equal values may be shown once. Inconclusive results and toxic doses are left out. How the source made its calls: active means survival T/C of 150% or more; inactive means T/C below 125% in these data.

System: P388 leukemia ip, CD2F1 mice, survival T/C
Assay: NCI In Vivo Anticancer Drug Screen. Data for tumor model P388 Leukemia (intraperitoneal) in CD2F1 (CDF1) mice
Details: endpoint: median survival time, higher = longer survival
In short: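 Mice carrying the transplanted tumor received test compound or vehicle. Survival was recorded in each group, and the value is the treated-group measurement divided by that of the vehicle-treated control group.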

[1] = dose: 12.5 mg/kg/injection, schedule: Q01DX009 (ip), vehicle: saline with Tween-80
[2] = dose: 50.0 mg/kg/injection, schedule: Q01DX009 (ip), vehicle: saline with Tween-80
[3] = dose: 200.0 mg/kg/injection, schedule: Q04DX003 (ip), vehicle: saline with Tween-80
[4] = dose: 100.0 mg/kg/injection, schedule: Q01DX001 (ip), vehicle: saline with Tween-80
[5] = dose: 200.0 mg/kg/injection, schedule: Q01DX001 (ip), vehicle: saline with Tween-80
[6] = dose: 100.0 mg/kg/injection, schedule: Q01DX009 (ip), vehicle: saline with Tween-80
[7] = dose: 200.0 mg/kg/injection, schedule: Q01DX009 (ip), vehicle: saline with Tween-80
[8] = dose: 12.5 mg/kg/injection, schedule: Q01DX009 (ip), vehicle: saline
[9] = dose: 25.0 mg/kg/injection, schedule: Q01DX009 (ip), vehicle: saline
[10] = dose: 50.0 mg/kg/injection, schedule: Q01DX009 (ip), vehicle: saline
[11] = dose: 50.0 mg/kg/injection, schedule: Q01DX009 (ip), vehicle: Klucel (hydroxypropylcellulose) (HPC)
[12] = dose: 100.0 mg/kg/injection, schedule: Q01DX009 (ip), vehicle: Klucel (hydroxypropylcellulose) (HPC)
[13] = dose: 25.0 mg/kg/injection, schedule: Q01DX009 (ip), vehicle: Klucel (hydroxypropylcellulose) (HPC)
[14] = dose: 100.0 mg/kg/injection, schedule: Q01DX009 (ip), vehicle: saline
[15] = dose: 200.0 mg/kg/injection, schedule: Q01DX009 (ip), vehicle: Klucel (hydroxypropylcellulose) (HPC)
[16] = dose: 200.0 mg/kg/injection, schedule: Q01DX009 (ip), vehicle: saline
[17] = dose: 50.0 mg/kg/injection, schedule: Q01DX005 (ip), vehicle: saline with Tween-80
[18] = dose: 100.0 mg/kg/injection, schedule: Q01DX005 (ip), vehicle: saline with Tween-80
[19] = dose: 200.0 mg/kg/injection, schedule: Q01DX005 (ip), vehicle: saline with Tween-80

Measured: T/C

CSc1nc(C)c(Br)c(Sc2nc(N)nc3nc[nH]c23)n1
inactive: [1] 104 % of control | [2] 113 % of control and 122 % of control | [3] 95 % of control

COc1ccc(NCc2ccc(C)cc2)cc1
inactive: [4] 100 % of control | [5] 108 % of control | dose: 400.0 mg/kg/injection, schedule: Q01DX001 (ip), vehicle: saline with Tween-80 107 % of control

CCN1C=C(C(=O)OC)C(N)=C(C#N)/C1=C\C=C(/C#N)C(=O)OC
inactive: dose: 100.0 mg/kg/injection, schedule: Q04DX002 (ip), vehicle: Klucel (hydroxypropylcellulose) (HPC) 92 % of control | dose: 200.0 mg/kg/injection, schedule: Q04DX002 (ip), vehicle: Klucel (hydroxypropylcellulose) (HPC) 101 % of control | dose: 400.0 mg/kg/injection, schedule: Q04DX002 (ip), vehicle: Klucel (hydroxypropylcellulose) (HPC) 89 % of control

COC1/C=C/OC2(C)Oc3c(C)c(O)c4c(c3C2=O)C(=O)C(CO)=C(NC(=O)/C(C)=C\C=C\C(C)C(O)C(C)C(O)C(C)C(OC(C)=O)C1C)C4=O (centres undefined)
inactive: [2] 104 % of control | [6] 99 % of control | [7] 112 % of control

N=C(N)C1CC1
inactive: [8] 100 % of control | [9] 100 % of control | [10] 102 % of control

CC(=O)C1=C(O)/C(=C\c2ccccc2)OC1=O
inactive: [11] 92 % of control | [12] 107 % of control

Nc1nc(N)c2cc(S(=O)(=O)c3cccc(C(F)(F)F)c3)ccc2n1
inactive: [2] 113 % of control | [6] 117 % of control | [7] 106 % of control

CSc1nc(-c2ccccc2)cc(=O)[nH]1
inactive: [13] 106 % of control | [11] 118 % of control | [10] 102 % of control | [12] 112 % of control | [14] 108 % of control | [15] 94 % of control | [16] 102 % of control

O=c1c(Cl)c(Cl)cnn1-c1ccccc1
inactive: dose: 25.0 mg/kg/injection, schedule: Q01DX001 (ip), vehicle: saline with Tween-80 100 % of control | dose: 50.0 mg/kg/injection, schedule: Q01DX001 (ip), vehicle: saline with Tween-80 118 % of control | [4] 111 % of control | [5] 111 % of control

CC(=NC(C)C)Nc1ccccc1
inactive: [2] 104 % of control | [6] 105 % of control

CONC(=O)N/N=C\c1c(CO)cnc(C)c1O
inactive: dose: 7.5 mg/kg/injection, schedule: Q01DX005 (ip), vehicle: Klucel (hydroxypropylcellulose) (HPC) 105 % of control | dose: 15.0 mg/kg/injection, schedule: Q01DX005 (ip), vehicle: Klucel (hydroxypropylcellulose) (HPC) 102 % of control | dose: 30.0 mg/kg/injection, schedule: Q01DX005 (ip), vehicle: Klucel (hydroxypropylcellulose) (HPC) 102 % of control

O=C1C(CCl)(CCl)CCC12CN=C(Cl)C2 (centres undefined)
inactive: [17] 100 % of control | [18] 100 % of control | [19] 106 % of control

COc1cc(C)cc(OC)c1
inactive: dose: 25.0 mg/kg/injection, schedule: Q01DX005 (ip), vehicle: Klucel (hydroxypropylcellulose) (HPC) 101 % of control | dose: 50.0 mg/kg/injection, schedule: Q01DX005 (ip), vehicle: Klucel (hydroxypropylcellulose) (HPC) 100 % of control | dose: 100.0 mg/kg/injection, schedule: Q01DX005 (ip), vehicle: Klucel (hydroxypropylcellulose) (HPC) 100 % of control | dose: 200.0 mg/kg/injection, schedule: Q01DX005 (ip), vehicle: Klucel (hydroxypropylcellulose) (HPC) 110 % of control

COC1CC(N=S(=O)(O)c2ccc(N)cc2)[N-]C(OC)N1.[Ag+] (centres undefined)
inactive: [11] 97 % of control | [12] 93 % of control | [15] 102 % of control

Cc1cc2[nH]c(Cl)c(/C=N/NC(N)=S)c2cc1O
inactive: dose: 100.0 mg/kg/injection, schedule: Q01DX001 (ip), vehicle: Klucel (hydroxypropylcellulose) (HPC) 99 % of control | dose: 200.0 mg/kg/injection, schedule: Q01DX001 (ip), vehicle: Klucel (hydroxypropylcellulose) (HPC) 99 % of control | dose: 400.0 mg/kg/injection, schedule: Q01DX001 (ip), vehicle: Klucel (hydroxypropylcellulose) (HPC) 97 % of control

CCCCCCCCCCCCCCCCNCC(O)CN (centres undefined)
inactive: dose: 3.13 mg/kg/injection, schedule: Q01DX009 (ip), vehicle: saline with Tween-80 102 % of control | dose: 6.25 mg/kg/injection, schedule: Q01DX009 (ip), vehicle: saline with Tween-80 96 % of control | [1] 88 % of control

C/C1=C\CCC(C)C2CCC(C)(O2)C(O)C(O)c2c(C)coc2C1 (centres undefined)
inactive: dose: 4.0 mg/kg/injection, schedule: Q01DX009 (ip), vehicle: Klucel (hydroxypropylcellulose) (HPC) 100 % of control | dose: 8.0 mg/kg/injection, schedule: Q01DX009 (ip), vehicle: Klucel (hydroxypropylcellulose) (HPC) 105 % of control | dose: 16.0 mg/kg/injection, schedule: Q01DX009 (ip), vehicle: Klucel (hydroxypropylcellulose) (HPC) 100 % of control | dose: 32.0 mg/kg/injection, schedule: Q01DX009 (ip), vehicle: Klucel (hydroxypropylcellulose) (HPC) 94 % of control

Cc1cc(=O)[nH]c(N/N=C/c2ccccc2O)n1
inactive: [6] 90 % of control | dose: 100.0 mg/kg/injection, schedule: Q04DX003 (ip), vehicle: saline with Tween-80 90 % of control | [7] 90 % of control | [3] 90 % of control | dose: 400.0 mg/kg/injection, schedule: Q01DX009 (ip), vehicle: saline with Tween-80 90 % of control | dose: 400.0 mg/kg/injection, schedule: Q04DX003 (ip), vehicle: saline with Tween-80 100 % of control

Cc1cc(OC(=O)Nc2ccc(C(C)C)cc2)c(C)cc1Br
inactive: dose: 6.25 mg/kg/injection, schedule: Q01DX009 (ip), vehicle: saline 89 % of control | [8] 92 % of control | [9] 98 % of control | dose: 100.0 mg/kg/injection, schedule: Q01DX009 (ip), vehicle: saline + alcohol 98 % of control | dose: 200.0 mg/kg/injection, schedule: Q01DX009 (ip), vehicle: saline + alcohol 110 % of control

COC1/C=C\OC2(C)Oc3c(C)c(O)c4c(O)c(c5c(c4c3C2=O)OC[N+](C)=C5)NC(=O)/C(C)=C\C=C\C(C)C(O)C(C)C(O)C(C)C(OC(C)=O)C1C (centres undefined)
inactive: [13] 92 % of control | [11] 97 % of control | [12] 95 % of control | [15] 95 % of control

S=C(C(=S)N1CCOCC1)N1CCOCC1
inactive: [13] 110 % of control | dose: 50.0 mg/kg/injection, schedule: Q01DX001 (ip), vehicle: saline 100 % of control | [11] 99 % of control and 101 % of control and 112 % of control | dose: 100.0 mg/kg/injection, schedule: Q01DX001 (ip), vehicle: saline 107 % of control | [12] 101 % of control and 114 % of control | dose: 200.0 mg/kg/injection, schedule: Q01DX001 (ip), vehicle: saline 112 % of control | [15] 103 % of control and 110 % of control and 123 % of control

CCn1c2ccc([N+](=O)[O-])cc2c2c([N+](=O)[O-])c(NC(C)=O)ccc21
inactive: [17] 93 % of control | [18] 95 % of control | [19] 92 % of control

CCOC(=O)/C(=C(/C)OC(C)=O)c1ccc([N+](=O)[O-])cc1[N+](=O)[O-]
inactive: [10] 89 % of control | [14] 94 % of control | [16] 93 % of control
